In brackets after ≈: the same amount, converted by molar mass.
Key:
[1] = Cytotoxicity against rat L6 cells assessed as reduction in cell viability measured after 70 hrs by alamar blue reagent based fluorescence assay; format: toxicity
[2] = Lipophilicity, log D of compound at pH 7.4 by gradient HPLC analysis; format: physicochemical; conditions: buffer
[3] = Solubility of compound in pH 2 0.01 M HCl by nephelometry; format: physicochemical
[4] = Intrinsic clearance in human liver microsomes assessed per mg protein at 1 uM preincubated for 5 to 10 mins followed by NADPH-regenerating system addition and measured after 2 to 60 mins by LC-MS/MS analysis; format: ADME, Microsome; conditions: time 2-60 min
[5] = Intrinsic clearance in mouse liver microsomes assessed per mg protein at 1 uM preincubated for 5 to 10 mins followed by NADPH-regenerating system addition and measured after 2 to 60 mins by LC-MS/MS analysis; format: ADME, Microsome; conditions: time 2-60 min
[6] = Solubility of compound in pH 6.5 phosphate buffer by nephelometry; format: physicochemical
Schistosoma mansoni [7] = assay: Antischistosomal activity against Schistosoma mansoni adult worms at 10 uM measured at 24 hrs interval for 72 hrs relative to control; format: functional
Schistosoma mansoni [8] = assay: Antischistosomal activity against Schistosoma mansoni NTS assessed as reduction in parasite viability measured at 24 hrs interval for 72 hrs by bright-field microscopy; format: functional, organism-based
Schistosoma mansoni [9] = assay: Antischistosomal activity against Schistosoma mansoni adult worms measured at 24 hrs interval for 72 hrs; format: functional, organism-based
Schistosoma mansoni [10] = assay: Antischistosomal activity against Schistosoma mansoni Liberian adult worms assessed as reduction in worm viability measured after 72 hrs by microscopy; format: functional, organism-based

SMILES	IC50 at 70 h [1] [µM]	logD [2]	solubility kinetic [3] [µg/mL]	intrinsic clearance [4] [µL/min]	intrinsic clearance (CLint) [5] [µL/min]	solubility kinetic [6] [µg/mL]	Activity (Schistosoma mansoni [7]) [%]	IC50 (Schistosoma mansoni [8]) [µM]	IC50 (Schistosoma mansoni [9]) [µM]	IC50 (Schistosoma mansoni [10]) [µM]
Cc1ccc(S(=O)(=O)N2CCc3[nH]c4ccccc4c3C2)cc1	29	4.1	1.6 (≈ 4.9 µM)	170	540	1.6 (≈ 4.9 µM)				
NC(=O)c1ccc2[nH]c3c(c2c1)CN(S(=O)(=O)c1ccc(F)cc1)CC3	100	2.6	12.5 (≈ 33.5 µM)	124	81	6.3 (≈ 16.9 µM)				
O=C(Nc1ccc(F)cc1)N1CCc2[nH]c3ccccc3c2C1	85	3.4	6.3 (≈ 20.4 µM)	82	130	6.3 (≈ 20.4 µM)				
O=S(=O)(c1ccc(C(F)(F)F)cc1)N1CCc2[nH]c3ccccc3c2C1	81	4.3	< 1.6	50	431	< 1.6				
O=S(=O)(c1ccccc1)N1CCc2[nH]c3ccccc3c2C1	100	3.9	1.6 (≈ 5.12 µM)	250	> 866	1.6 (≈ 5.12 µM)				
O=C(c1ccc(F)cc1)N1CCc2[nH]c3ccccc3c2C1	69	3.3	6.3 (≈ 21.4 µM)	111	184	6.3 (≈ 21.4 µM)	24			
O=S(=O)(c1ccc(F)cc1)N1CCc2[nH]c3ccc(F)cc3c2C1	150	4.1	3.1 (≈ 8.9 µM)	105	> 866	1.6 (≈ 4.59 µM)				
O=S(=O)(c1ccc(Cl)cc1)N1CCc2[nH]c3ccccc3c2C1	53	4.2	1.6 (≈ 4.61 µM)	74	607	1.6 (≈ 4.61 µM)				
O=S(=O)(c1ccc(F)cc1)N1CCc2[nH]c3ccccc3c2CC1	83	4.2	< 1.6	123	> 866	< 1.6				
O=S(=O)(Cc1ccc(F)cc1)N1CCc2[nH]c3ccccc3c2C1	56	3.9	3.1 (≈ 9 µM)	135	688	1.6 (≈ 4.65 µM)				
O=S(=O)(c1ccc(Br)cc1)N1CCc2[nH]c3ccccc3c2C1	26	4.4	< 1.6	102	446	< 1.6	67	4.9	4.4	
O=C(O)c1ccc(S(=O)(=O)N2CCc3[nH]c4ccccc4c3C2)cc1	190	1.6	3.1 (≈ 8.7 µM)	11	< 7	25 (≈ 70.1 µM)				
O=C(c1ccc2[nH]c3c(c2c1)CN(S(=O)(=O)c1ccc(F)cc1)CC3)N1CCOCC1	130	3	12.5 (≈ 28.2 µM)	89	120	6.3 (≈ 14.2 µM)				
CS(=O)(=O)c1ccc(S(=O)(=O)N2CCc3[nH]c4ccccc4c3C2)cc1	> 250	3.4	3.1 (≈ 7.94 µM)	57	156	3.1 (≈ 7.94 µM)	43	3.3		
O=S(=O)(C1CCOCC1)N1CCc2[nH]c3ccccc3c2C1	160	2.9	25 (≈ 78 µM)	34	674	25 (≈ 78 µM)				
O=S(=O)(c1ccc(F)cc1)N1CCc2c([nH]c3ccccc23)C1	53	4.1	< 1.6	120	445	< 1.6				
O=S(=O)(c1cccnc1)N1CCc2[nH]c3ccccc3c2C1	110	3.1	12.5 (≈ 39.9 µM)	117	561	6.3 (≈ 20.1 µM)				
O=S(=O)(c1ccc(F)cc1)N1CCc2[nH]c3ccccc3c2C1	52	4	1.6 (≈ 4.84 µM)	120	> 866	1.6 (≈ 4.84 µM)	59	1.2	4.2	
O=C1CCN(S(=O)(=O)c2ccc(F)cc2)CC(=O)c2ccccc2N1	> 280	2.5	50 (≈ 138 µM)	40	107	50 (≈ 138 µM)				
O=S(=O)(c1ccc(F)cc1)N1CCc2[nH]c3ncccc3c2C1	82	3.2	50 (≈ 151 µM)	62	339	12.5 (≈ 37.7 µM)				
CS(=O)(=O)N1CCc2[nH]c3ccccc3c2C1	290	2.6	25 (≈ 99.9 µM)	12	21	25 (≈ 99.9 µM)				
O=S(=O)(c1cnc[nH]1)N1CCc2[nH]c3ccccc3c2C1	170	2	50 (≈ 165 µM)	< 7	17	50 (≈ 165 µM)				
O=C(O)c1ccc2[nH]c3c(c2c1)CN(S(=O)(=O)c1ccc(F)cc1)CC3	240	1.4	3.1 (≈ 8.28 µM)	< 7	< 7	50 (≈ 134 µM)				
N#Cc1ccc2[nH]c3c(c2c1)CN(S(=O)(=O)c1ccc(F)cc1)CC3	33	3.8	1.6 (≈ 4.5 µM)	399	230	1.6 (≈ 4.5 µM)				
NC(=O)Cn1c2c(c3ccccc31)CN(S(=O)(=O)c1ccc(F)cc1)CC2	150		3.1 (≈ 8 µM)	75	176	3.1 (≈ 8 µM)				
O=C(C1CCCCC1)N1CC(=O)N2CCc3ccccc3C2C1 (centres undefined) [PRAZIQUANTEL]										0.077

From ChEMBL document CHEMBL5131440, “Antischistosomal tetrahydro-γ-carboline sulfonamides” (Bioorg Med Chem Lett, 2022)
